Experimental data as given in patent publication US20160333073A1, “DRUG DELIVERY SYSTEM” (UCL BUSINESS PLC, priority 2014, published 2016).
Read-outs that look alike come from different tables or passages of the source. Each block holds one compound with its values, some of them ahead of it. Square brackets hold non-standard residues; d marks the D form. Peptide text beside a SMILES is read from it. * marks the point of attachment. FITC = O=C1OC2(c3ccc(O)cc3Oc3cc(O)ccc32)c2ccc(NC(=S)*)cc21

Columns and labels:
[1] = Degradation by proteases in rabbit vitreous (mass spectrometry / UPLC-MS)
Experimental: FIG. 10. […] UPLC-MS=ultra performance liquid chromatography-mass spectrometry.
FIG. 11. The effect of the protease inhibitors aprotinin (8 μM), bestatin (500 μM), E-64 (150 μM), and leupeptin (200 μM) on HABP35-F detection by UPLC-MS, after 6 hours incubation in rabbit vitreous. […] The experiment was performed three times (n=3). UPLC-MS=ultra performance liquid chromatography-mass spectrometry.
In order to assess degradation of HABP35-F by proteases present in rabbit vitreous, HABP35-F was incubated in rabbit vitreous for a period of 12 hours. Samples of HABP35-F in rabbit vitreous were taken at 0 and 12 hours and the mass spectrum traces for HABP35-F were compared.
In order to confirm that fragmentation occurred at the N-terminus (as opposed to the C-terminus), HABP35-B was incubated for 12 hours with rabbit vitreous.
In order to further confirm that HABP35-F was being enzymatically digested at the N-terminus, the proportion of HABP35-F that could be detected following incubation was assessed, with or without bestatin. Bestatin is an aminopeptidase inhibitor. Aminopeptidases catalyse the cleavage of amino acids from the N-terminus of peptides/proteins.
In order to optimise detection, further other protease inhibitors were added (aprotinin, bestatin, E-64, leupeptin).

[2] = set-up: species or system Sprague Dawley rats; conditions: rat, in vivo
Experimental: FIG. 5. The retention of HABP35-F and RP2-F in rat vitreous after 48 hours. 2.5 μl of HABP35-F or RP2-F (250 nmole/ml) was injected into the vitreous of adult male Sprague Dawley rats. After 48 hours the eyes were removed. The cornea and lens was removed and the eye cup opened out into a Maltese cross. The vitreous and retina was photographed using an epifluorescent microscope (using equal exposure settings). A) Fluorescence of HABP35-F in the vitreous 48 hours following injection. B) Fluorescence of RP-F in the vitreous 48 hours following injection. C) Collage photograph showing fluorescence of HABP35-F in the vitreous 48 hours following injection.
FIG. 6. The in vivo diffusion study of HABP35-FP (higher line) and RP2-F (lower line) in rat vitreous over time. […] At different time points (0, 8, 24, 72, 168 hours) rats were sacrificed and the concentration of peptide in the vitreous was measured by fluorescence. […]
HABP-35-F was modified to protect the N-terminus from enzymatic degradation, through conversion of the terminal leucine to its D-configuration and by acetylation. […] The vitreous was extracted and peptide concentration measured by assessing fluorescence of the extracted vitreous. Three eyes were assessed, for each peptide, at each time point. In addition, the fluorescence of the vitreous was directly assessed on eye-cup flat mounts using an epifluorescent microscope.

[3] = assay type: binding
Experimental: (§1) FIG. 1. Harvard Fast Micro-Equilibrium Dialyzer. Each dialyzer is made of polytetrafluoroethylene (PTFE) and contains a 250 μl chamber on either side of a 100 kDa molecular weight cut off (MWCO) cellulose acetate membrane. The chambers were incubated at room temperature for up to 8 hours, and the diffusion from one chamber to the other was assessed. The side in which the peptide is placed is termed the donating chamber. The other side, towards which the peptide diffuses, is termed the receiving chamber.
FIG. 4. The diffusion of HABP35-F (left-hand column in each case) and RP2-F (right-hand column in each case) in hyaluronic acid, using a Harvard Fast Micro-Equilibrium Dialyzer. […] Concentration of HABP35-F or RP2-F, in the donating and receiving chambers, was measured at the 8-hour time point (n=3). The concentration gradient was then determined (difference between the concentration of the donating and receiving chambers). […]
In order to assess whether the retention in the donating chamber was due to an interaction with hyaluronic acid (HA), a solution of 2.5 mg/ml HA (in HEPES buffered saline) was added to each chamber, instead of rabbit vitreous. 20 nmole/ml of HABP35-F or RP2-F was added to the donating chamber and diffusion was measured over 8 hours. […] As a control, diffusion in HEPES buffered saline (HBS) alone was also assessed. […]

[4] = HA binder screening ELISA on non-covalently bound HA; assay type: binding; conditions: for specific binding to non-covalently bound HA (A450 HA wells minus blank wells): n=3, compared with RP-B
Experimental: FIG. 7. […] Three ELISAs were performed for each concentration (n=3). Error bars represent standard deviation.
FIG. 8. […] Specific binding was obtained by subtracting A450 of blank wells from A450 of HA loaded wells, from the readings represented in FIG. 7. Three ELISAs were performed for each concentration (n=3). […] Error bars represent standard deviation.
Wells of a clear polystyrene Amine Surface 96 well ELISA plates (Corning Life Sciences Ltd) were loaded with 100 μl of 1 mg/ml HA sodium salt (Sigma-Aldrich Ltd) in 0.1 M 2-[N-morpholino] ethane sulfonic acid (MES, pH 4.5-5, Sigma-Aldrich Ltd). The wells were incubated for three hours at room temperature on an orbital shaker. All further incubations occurred at room temperature on an orbital shaker.
Wells were then washed three times with wash buffer (0.05% Tween 20 (Sigma-Aldrich Ltd) in phosphate buffered saline (PBS), pH 7.2-7.4). PBS was prepared to the following formula: 137 mM sodium chloride, 2.7 mM potassium chloride, 8.1 mM sodium phosphate dibasic, 1.5 mM potassium phosphate monobasic, pH 7.2-7.4, 0.22 μm filtered. 300 μl of 3% BSA (Sigma-Aldrich Ltd) in PBS was used to block each well. After 90 minutes incubation the wells were washed again three times. Different concentrations of biotinylated HA binding peptides, or control peptides, were then added, dissolved in 100 μl of 3% BSA PBS, and incubated for 1 hour. Three further washes were performed. 100 μl of streptavidin-horse radish peroxidase (S-HRP) (R&D Systems Ltd) (diluted to a working concentration of 1:200 in PBS) was added to each well, to detect any bound biotinylated peptide. The wells were incubated for 20 minutes, protected from light, followed by three further washes. 100 μl of tetramethylbenzidine (TMB)/H2O2, was added to each well. The wells were incubated for 10 minutes, protected from light. The reaction was stopped with 50 μl of 1 M H2SO4. Optical density of each well was read immediately, using a Modulus Microplate Reader set to 450 nm, One-way analysis of variance (ANOVA) was used to deter line statistical significance between groups (GraphPad Prism 5, GraphPad software Ltd).

[5] = assay type: binding, rabbit
Source text: The affinity of the peptide may be defined in terms of its binding affinity to hyaluronic acid and/or collagen, and assessed by way of its diffusion from one chamber of a micro-equilibrium dialyser containing vitreous matter (e.g. hyaluronic acid) to another chamber containing vitreous matter in the absence of such a binding peptide. Thus, the concentration of peptide remaining in the initial chamber over time provides a quantitative parameter for assessing the amount of peptide remaining in the vitreous, this parameter being innately governed by peptide binding properties to hyaluronic acid. A comparison with the binding properties of the peptide of SEQ ID No. 1 allows the relative affinity to the determined (for example, see FIG. 3).
as §1, with “The side in which the peptide is placed is termed the donating chamber. The other side, towards which the peptide diffuses, is termed the receiving chamber.” left out
In order to study the diffusion properties of HABP35-F in vitreous, Fast Micro-Equilibrium Dialyzers (250 μl chamber volume) were purchased from Harvard Apparatus Ltd (UK). […] The rate at which HABP35-F and RP2-F diffused from one side of the dialyzer to the other was assessed over time. […]

Compound: CC(C)C[C@H](NC(=O)[C@@H](O)[C@H](N)Cc1ccccc1)C(=O)O [Bestatin, reference compound]
amount of HABP35-F detectable by UPLC-MS ([1]; HABP35-F 10 nmole/ml, 6 hours incubation in rabbit vitreous, bestatin 250 μM): significantly increased

Compound: GAHWQFNALTVR-GGGS-K(Biotin)-amide [Pep1-B, reference compound]
specific binding to non-covalently bound HA (A450 HA wells minus blank wells) [4]: significantly greater specific binding at all concentrations tested

Compound: LKQKIKHVVKLKVVVKLRSQLVKRKQN-GGGS-K(Biotin)-amide [HABP35-B]
non-specific binding (blocked wells without HA) [4]: high non-specific binding
specific binding to non-covalently bound HA (A450 HA wells minus blank wells) [4]: specific signal deteriorated at higher concentrations
concentrations showing specific binding relative to HABP42-B or Pep1-B ([4]; non-covalently bound HA): ten-fold less
degradation in rabbit vitreous (mass spectrum) ([1]; incubation in rabbit vitreous, 12 hours vs 0 hours): a new ion also appeared, containing a comparable loss in MW to that seen with HABP35-F

Compound: SATPASAPYPLAGGGSSATPASAPYPLAGGGS-K(FITC)-amide [RP2-F, reference compound]
peptide concentration in / retention in the donating chamber ([5]; rabbit vitreous, 20 nmole/ml peptide in donating chamber, 100 kDa MWCO membrane, 2, 4, 6 and 8 hours, fluorescence): almost reaching equilibrium
concentration gradient (concentration in donating chamber - concentration in receiving chamber) ([5]; rabbit vitreous, 2, 4, 6 and 8 hours): almost reached zero

Second part, led by results:

fluorescence of peptide in the vitreous (epifluorescent microscopy) [2]: increased retention
Compound: CC[C@H](C)[C@H](NC(=O)[C@H](CCCCN)NC(=O)[C@H](CCC(N)=O)NC(=O)[C@H](CCCCN)NC(=O)[C@@H](CC(C)C)NC(C)=O)C(=O)N[C@@H](CCCCN)C(=O)N[C@@H](Cc1c[nH]cn1)C(=O)N[C@H](C(=O)N[C@H](C(=O)N[C@@H](CCCCN)C(=O)N[C@@H](CC(C)C)C(=O)N[C@@H](CCCCN)C(=O)N[C@H](C(=O)N[C@H](C(=O)N[C@H](C(=O)N[C@@H](CCCCN)C(=O)N[C@@H](CC(C)C)C(=O)N[C@@H](CCCNC(=N)N)C(=O)N[C@@H](CO)C(=O)N[C@@H](CCC(N)=O)C(=O)N[C@@H](CC(C)C)C(=O)N[C@H](C(=O)N[C@@H](CCCCN)C(=O)N[C@@H](CCCNC(=N)N)C(=O)N[C@@H](CCCCN)C(=O)N[C@@H](CCC(N)=O)C(=O)N[C@@H](CC(N)=O)C(=O)NCC(=O)NCC(=O)NCC(=O)N[C@@H](CO)C(=O)N[C@@H](CCCCNC(=S)Nc1ccc2c(c1)C(=O)OC21c2ccc(O)cc2Oc2cc(O)ccc21)C(N)=O)C(C)C)C(C)C)C(C)C)C(C)C)C(C)C)C(C)C [HABP35-FP] (Ac-[dL]KQKIKHVVKLKVVVKLRSQLVKRKQNGGGSK(FITC)-NH2)

total amount of peptide in both chambers (degradation) during diffusion study [3]: minimal degradation
fluorescence of peptide in the vitreous (epifluorescent microscopy) [2]: visibly more fluorescent peptide
Compound: CC[C@H](C)[C@H](NC(=O)[C@H](CCCCN)NC(=O)[C@H](CCC(N)=O)NC(=O)[C@H](CCCCN)NC(=O)[C@@H](N)CC(C)C)C(=O)N[C@@H](CCCCN)C(=O)N[C@@H](Cc1c[nH]cn1)C(=O)N[C@H](C(=O)N[C@H](C(=O)N[C@@H](CCCCN)C(=O)N[C@@H](CC(C)C)C(=O)N[C@@H](CCCCN)C(=O)N[C@H](C(=O)N[C@H](C(=O)N[C@H](C(=O)N[C@@H](CCCCN)C(=O)N[C@@H](CC(C)C)C(=O)N[C@@H](CCCNC(=N)N)C(=O)N[C@@H](CO)C(=O)N[C@@H](CCC(N)=O)C(=O)N[C@@H](CC(C)C)C(=O)N[C@H](C(=O)N[C@@H](CCCCN)C(=O)N[C@@H](CCCNC(=N)N)C(=O)N[C@@H](CCCCN)C(=O)N[C@@H](CCC(N)=O)C(=O)N[C@@H](CC(N)=O)C(=O)NCC(=O)NCC(=O)NCC(=O)N[C@@H](CO)C(=O)N[C@@H](CCCCNC(=S)Nc1ccc2c(c1)C(=O)OC21c2ccc(O)cc2Oc2cc(O)ccc21)C(N)=O)C(C)C)C(C)C)C(C)C)C(C)C)C(C)C)C(C)C [HABP35-F] (H-LKQKIKHVVKLKVVVKLRSQLVKRKQNGGGSK(FITC)-NH2)
degradation in rabbit vitreous (mass spectrum) [1]: this new molecule was HABP35-F minus the N-terminal leucine
